Measurements as given in the supplement of paper PMC11061612.

Tests used:
Paclitaxel = compound: CC(=O)O[C@H]1C(=O)[C@@]2(C)[C@H]([C@H](OC(=O)c3ccccc3)[C@]3(O)C[C@H](OC(=O)[C@H](O)[C@@H](NC(=O)c4ccccc4)c4ccccc4)C(C)=C1C3(C)C)[C@]1(OC(C)=O)CO[C@@H]1C[C@@H]2O [Paclitaxel]; details: max 3 µM
Summary of the method: (§1)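 Viability was measured with CellTiter-Glo 2.0 luminescence after 72 hours of dosing at a final DMSO of typically 0.2%, and scaled between blank-well and DMSO-well means. Beforehand, cancer cell lines sat 24 hours at 37°C and 5% CO2 in 1536-well plates in 7.5 μl DMEM/F12 or RPMI with 10% FBS. A non-linear mixed effects model fitted two-parameter logistic curves to the dose responses. The single-agent IC50 comes from these fits.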

Doxorubicin = compound: COc1cccc2c1C(=O)c1c(O)c3c(c(O)c1C2=O)C[C@@](O)(C(=O)CO)C[C@@H]3O[C@H]1C[C@H](N)[C@H](O)[C@H](C)O1 [Doxorubicin]; details: max 1 µM
Summary of the method: as §1

AZD5153 = compound: COc1nnc2ccc(N3CCC(c4ccc(OCCN5CCN(C)C(=O)[C@H]5C)cc4)CC3)nn12 [AZD5153]; details: max 1 µM
Summary of the method: as §1

AZD8186 = compound: C[C@@H](Nc1cc(F)cc(F)c1)c1cc(C(=O)N(C)C)cc2c(=O)cc(N3CCOCC3)oc12 [AZD8186]; details: max 10 µM
Summary of the method: as §1

SRA737 = compound: N#Cc1cnc(Nc2cc(NC[C@H]3CNCCO3)c(C(F)(F)F)cn2)cn1 [SRA737]; details: max 10 µM
Summary of the method: as §1

Prexasertib = compound: COc1cccc(OCCCN)c1-c1cc(Nc2cnc(C#N)cn2)n[nH]1 [Prexasertib]; details: max 1 µM
Summary of the method: as §1

Venetoclax = compound: CC1(C)CCC(CN2CCN(c3ccc(C(=O)NS(=O)(=O)c4ccc(NCC5CCOCC5)c([N+](=O)[O-])c4)c(Oc4cnc5[nH]ccc5c4)c3)CC2)=C(c2ccc(Cl)cc2)C1 [Venetoclax]; details: max 1 µM
Summary of the method: as §1

Gemcitabine = compound: Nc1ccn([C@@H]2O[C@H](CO)[C@@H](O)C2(F)F)c(=O)n1 [Gemcitabine]; details: max 0.3 µM
Summary of the method: as §1

Dasatinib = compound: CC1=C(C(=CC=C1)Cl)NC(=O)C2=CN=C(S2)NC3=CC(=NC(=N3)C)N4CCN(CC4)CCO [Dasatinib]; details: max 2 µM
Summary of the method: as §1

Savolitinib = compound: C[C@@H](c1ccc2nccn2c1)n1nnc2ncc(-c3cnn(C)c3)nc21 [Savolitinib]; details: max 1 µM
Summary of the method: as §1

Crizotinib = compound: C[C@@H](Oc1cc(-c2cnn(C3CCNCC3)c2)cnc1N)c1c(Cl)ccc(F)c1Cl [Crizotinib]; details: max 10 µM
Summary of the method: as §1

Taselisib = compound: Cc1nc(-c2cn3c(n2)-c2ccc(-c4cnn(C(C)(C)C(N)=O)c4)cc2OCC3)n(C(C)C)n1 [Taselisib]; details: max 10 µM
Summary of the method: as §1

MK-2206 = compound: NC1(c2ccc(-c3nc4ccn5c(=O)[nH]nc5c4cc3-c3ccccc3)cc2)CCC1 [MK-2206]; details: max 10 µM
Summary of the method: as §1

AZD4320 = compound: CN(CC[C@H](CSC1=CC=CC=C1)NC2=C(C=C(C=C2)S(=O)(=O)NC(=O)C3=CC=C(C=C3)N4CCC(CC4)[C@H](C5=CC=CC=C5C6=CC=C(C=C6)Cl)O)S(=O)(=O)C(F)(F)F)CCO [AZD4320]; details: max 1 µM
Summary of the method: as §1

Trametinib = compound: CC(=O)Nc1cccc(-n2c(=O)n(C3CC3)c(=O)c3c(Nc4ccc(I)cc4F)n(C)c(=O)c(C)c32)c1 [Trametinib]; details: max 1 µM
Summary of the method: as §1

Alisertib = compound: COc1cc(Nc2ncc3c(n2)-c2ccc(Cl)cc2C(c2c(F)cccc2OC)=NC3)ccc1C(=O)O [Alisertib]; details: max 10 µM
Summary of the method: as §1

Olaparib = compound: O=C(c1cc(Cc2n[nH]c(=O)c3ccccc23)ccc1F)N1CCN(C(=O)C2CC2)CC1 [Olaparib]; details: max 10 µM
Summary of the method: as §1

AZD0156 = compound: CN(C)CCCOc1ccc(-c2ccc3ncc4c(c3c2)n(C2CCOCC2)c(=O)n4C)cn1 [AZD0156]; details: max 3 µM
Summary of the method: as §1

Selumetinib = compound: Cn1cnc2c(F)c(Nc3ccc(Br)cc3Cl)c(C(=O)NOCCO)cc21 [Selumetinib]; details: max 10 µM
Summary of the method: as §1

Palbociclib = compound: CC(=O)c1c(C)c2cnc(Nc3ccc(N4CCNCC4)cn3)nc2n(C2CCCC2)c1=O [Palbociclib]; details: max 10 µM
Summary of the method: as §1

AZD5363 = compound: C1CN(CCC1(C(=O)N[C@@H](CCO)C2=CC=C(C=C2)Cl)N)C3=NC=NC4=C3C=CN4 [AZD5363]; details: max 10 µM
Summary of the method: as §1

AZD5991 = compound: Cc1c2c(nn1C)CSCc1cc(n(C)n1)CSc1cc(c3ccccc3c1)OCCCc1c(C(=O)O)n(C)c3c-2c(Cl)ccc13 [AZD5991]; details: max 1 µM
Summary of the method: as §1

Gefitinib = compound: COc1cc2ncnc(Nc3ccc(F)c(Cl)c3)c2cc1OCCCN1CCOCC1 [Gefitinib]; details: max 10 µM
Summary of the method: as §1

Etoposide = compound: COc1cc([C@@H]2c3cc4c(cc3[C@@H](O[C@@H]3O[C@@H]5CO[C@@H](C)O[C@H]5[C@H](O)[C@H]3O)[C@H]3COC(=O)[C@H]23)OCO4)cc(OC)c1O [Etoposide]; details: max 10 µM
Summary of the method: as §1

AZD7648 = compound: Cc1cc2ncnn2cc1Nc1ncc2c(n1)n(C1CCOCC1)c(=O)n2C [AZD7648]; details: max 10 µM
Summary of the method: as §1

5-Fluorouracil = compound: O=c1[nH]cc(F)c(=O)[nH]1 [5-Fluorouracil]; details: max 20 µM
Summary of the method: as §1

SG3199 = compound: CC1=CN2[C@@H](C1)C=NC3=CC(=C(C=C3C2=O)OC)OCCCCCOC4=C(C=C5C(=C4)N=C[C@@H]6CC(=CN6C5=O)C)OC [SG3199]; details: max 0.001 µM
Summary of the method: as §1

Lapatinib = compound: CS(=O)(=O)CCNCc1ccc(-c2ccc3ncnc(Nc4ccc(OCc5cccc(F)c5)c(Cl)c4)c3c2)o1 [Lapatinib]; details: max 10 µM
Summary of the method: as §1

AZD2811 = compound: CCN(CCO)CCCOc1ccc2c(Nc3cc(CC(=O)Nc4cccc(F)c4)[nH]n3)ncnc2c1 [AZD2811]; details: max 1 µM
Summary of the method: as §1

[1] = compound: O=C(Nc1ccc2[nH]nc(-c3ccncc3)c2c1)[C@@H]1CCN(CC(=O)N2CCN(c3ccc(-c4ncccn4)cc3)CC2)C1; details: max 5 µM
Summary of the method: as §1

AZD6738 = compound: C[C@@H]1COCCN1C2=NC(=NC(=C2)C3(CC3)[S@](=N)(=O)C)C4=C5C=CNC5=NC=C4 [AZD6738]; details: max 10 µM
Summary of the method: as §1

Carboplatin = compound: C1CC(C1)(C(=O)[O-])C(=O)[O-].N.N.[Pt+2] [Carboplatin]; details: max 10 µM
Summary of the method: as §1

AZD1775 = compound: C=CCn1c(=O)c2cnc(Nc3ccc(N4CCN(C)CC4)cc3)nc2n1-c1cccc(C(C)(C)O)n1 [AZD1775]; details: max 3 µM
Summary of the method: as §1

AZD1390 = compound: CC(C)n1c(=O)n(C)c2cnc3cc(F)c(-c4ccc(OCCCN5CCCCC5)nc4)cc3c21 [AZD1390]; details: max 0.3 µM
Summary of the method: as §1

SN-38 = compound: CCc1c2c(nc3ccc(O)cc13)-c1cc3c(c(=O)n1C2)COC(=O)[C@]3(O)CC [SN-38]; details: max 0.3 µM
Summary of the method: as §1

Cell Line | IC50, cell viability 72 h (Paclitaxel) [nM] | IC50, cell viability 72 h (Doxorubicin) [nM] | IC50, cell viability 72 h (AZD5153) [nM] | IC50, cell viability 72 h (AZD8186) [nM] | IC50, cell viability 72 h (SRA737) [nM] | IC50, cell viability 72 h (Prexasertib) [nM] | IC50, cell viability 72 h (Venetoclax) [nM] | IC50, cell viability 72 h (Gemcitabine) [nM] | IC50, cell viability 72 h (Dasatinib) [nM] | IC50, cell viability 72 h (Savolitinib) [nM] | IC50, cell viability 72 h (Crizotinib) [nM] | IC50, cell viability 72 h (Taselisib) [nM] | IC50, cell viability 72 h (MK-2206) [nM] | IC50, cell viability 72 h (AZD4320) [nM] | IC50, cell viability 72 h (Trametinib) [nM] | IC50, cell viability 72 h (Alisertib) [nM] | IC50, cell viability 72 h (Olaparib) [nM] | IC50, cell viability 72 h (AZD0156) [nM] | IC50, cell viability 72 h (Selumetinib) [nM] | IC50, cell viability 72 h (Palbociclib) [nM] | IC50, cell viability 72 h (AZD5363) [nM] | IC50, cell viability 72 h (AZD5991) [nM] | IC50, cell viability 72 h (Gefitinib) [nM] | IC50, cell viability 72 h (Etoposide) [nM] | IC50, cell viability 72 h (AZD7648) [nM] | IC50, cell viability 72 h (5-Fluorouracil) [nM] | IC50, cell viability 72 h (SG3199) [nM] | IC50, cell viability 72 h (Lapatinib) [nM] | IC50, cell viability 72 h (AZD2811) [nM] | IC50, cell viability 72 h [1] [nM] | IC50, cell viability 72 h (AZD6738) [nM] | IC50, cell viability 72 h (Carboplatin) [nM] | IC50, cell viability 72 h (AZD1775) [nM] | IC50, cell viability 72 h (AZD1390) [nM] | IC50, cell viability 72 h (SN-38) [nM]
SK-N-AS (Neuroblastoma) | 299 | > 1000 | > 1000 | > 10000 | 8030 | 10 | > 1000 | 232 | > 2000 | > 1000 | > 10000 | > 10000 | > 10000 | > 1000 | 126 | 780 | > 10000 | > 3000 | > 10000 | > 10000 | > 10000 | > 1000 | > 10000 | > 10000 | > 10000 | > 20000 | > 1 | > 10000 | > 1000 | > 5000 | 2940 | > 10000 | 1000 | > 300 | 81.2
MDA-MB-453 (Breast Carcinoma) | 509 | > 1000 | 349 | > 10000 | > 10000 | 42.9 | > 1000 | > 300 | > 2000 | > 1000 | > 10000 | 521 | 3560 | > 1000 | > 1000 | > 10000 | > 10000 | > 3000 | > 10000 | > 10000 | 8590 | > 1000 | > 10000 | > 10000 | > 10000 | > 20000 | > 1 | > 10000 | > 1000 | > 5000 | 3960 | > 10000 | 1510 | > 300 | 68.2
KMRC-1 (Kidney Carcinoma) | > 3000 | > 1000 | > 1000 | 3160 | > 10000 | 588 | > 1000 | 133 | 711 | > 1000 | > 10000 | > 10000 | > 10000 | > 1000 | > 1000 | > 10000 | > 10000 | > 3000 | > 10000 | > 10000 | > 10000 | > 1000 | > 10000 | > 10000 | > 10000 | > 20000 | > 1 | > 10000 | > 1000 | > 5000 | > 10000 | > 10000 | > 3000 | > 300 | > 300
